Laboratory results from the CheMixHub drug solubility set.

Assay: xn = mol fraction of the nth substance listed, in the solute-free solvent

COC(=O)Nc1nc2ccccc2[nH]1 + CO + O
solubility (g/100 g solution)
Settings	278.15 K	283.15 K	288.15 K	293.15 K	298.15 K	303.15 K	308.15 K	313.15 K	318.15 K
x2 = 0.05887	0.00186	0.00222	0.00268	0.00321	0.00385	0.00444	0.00519	0.00603	0.00702
x2 = 0.1235	0.00537	0.00636	0.00764	0.00907	0.0107	0.0124	0.0144	0.0166	0.0191
x2 = 0.1941	0.00989	0.0117	0.0141	0.0168	0.0198	0.0228	0.0265	0.0306	0.0353
x2 = 0.2725	0.0136	0.0162	0.0196	0.0233	0.0275	0.032	0.0372	0.0432	0.0499
x2 = 0.36	0.0154	0.0185	0.0226	0.0279	0.0321	0.0378	0.0443	0.0516	0.06
x2 = 0.4579	0.0159	0.0192	0.0239	0.0289	0.0343	0.0409	0.0482	0.0567	0.0663
x2 = 0.5666	0.016	0.0196	0.0245	0.03	0.0357	0.0432	0.0513	0.0609	0.0717
x2 = 0.6924	0.0163	0.0203	0.0258	0.0316	0.0381	0.0463	0.0557	0.0664	0.0791
x2 = 0.8362	0.0175	0.0219	0.0281	0.0347	0.0418	0.0516	0.0624	0.075	0.0897

Nc1cc(-c2ccncc2)c[nH]c1=O + CO + O
solubility (g/100 g solution)
Settings	278.15 K	283.15 K	288.15 K	293.15 K	298.15 K	303.15 K	308.15 K	313.15 K	318.15 K	323.15 K
x2 = 0.05881	0.00167	0.00195	0.00231	0.00269	0.00313	0.00358	0.00409	0.00463	0.00525	0.00594
x2 = 0.1233	0.00324	0.00377	0.00445	0.00515	0.00595	0.00677	0.00768	0.00865	0.00977	0.011
x2 = 0.1942	0.00545	0.00626	0.00731	0.00841	0.00969	0.011	0.0124	0.0141	0.0159	0.0179
x2 = 0.2727	0.00818	0.00949	0.0111	0.0129	0.0147	0.0167	0.0189	0.0211	0.0237	0.0266
x2 = 0.3599	0.0113	0.013	0.0152	0.0174	0.0201	0.0228	0.0258	0.029	0.0326	0.0367
x2 = 0.4576	0.0147	0.0171	0.0201	0.0232	0.0266	0.0302	0.034	0.0381	0.0428	0.048
x2 = 0.5675	0.0183	0.0214	0.0246	0.029	0.0331	0.0375	0.0424	0.0475	0.0536	0.0605
x2 = 0.6923	0.0222	0.026	0.0305	0.0355	0.0408	0.0463	0.0524	0.0586	0.0662	0.0743
x2 = 0.835	0.0262	0.0305	0.0355	0.0412	0.0475	0.0545	0.0616	0.0694	0.0789	0.0893
